Test results as given in publication PMC2120445 (The Journal of Cell Biology, 1995).
Where two headings read alike, the source gives them in different places. Where no end group is shown, it is not given here.

Experiments:
Schwann cells = settings: cited from earlier work; for promotion of Schwann cell proliferation: rat sciatic nerve Schwann cells in culture, ref Eccleston, 1992, Ratner et al., 1988
[1] = system: Schwann cells (rat sciatic nerve); format: cell-based; settings: for doubling time: estimated from BrdU incorporation
[2] = system: Schwann cells (rat sciatic nerve); format: cell-based; settings: for BrdU incorporation compared with forskolin: agent alone, without PDGF, pulsatile regime; for doubling time / cells synthesizing DNA in 24 h: in the presence of PDGF; for doubling time: estimated from cells synthesizing DNA; for cells synthesizing DNA in 24 h: increased from 10%, Discussion
[3] = system: sciatic nerve fibroblasts; test: Proliferation of sciatic nerve fibroblasts induced by PDGF; format: cell-based, rat; settings: Kahn and Mudge, unpublished results
PDGF receptor = settings: ref Weinmaster and Lemke, 1990, cited from earlier work
erbB2 receptor = settings: Schwann cells; ref Weinmaster and Lemke (1990), Mudge, 1993 (review); cited from earlier work
[4] = system: Schwann cells (rat sciatic nerve); format: cell-based; settings: for attenuation (desensitization) of cAMP response with time: Schwann cells, even in the presence of IBMX
cultured Schwann cells = settings: ref Yasuda et al., 1988; cited from earlier work
[5] = system: sciatic nerve fibroblasts; test: Intracellular cAMP accumulation in sciatic nerve fibroblasts; format: cell-based, rat; settings: for dependence of cAMP effect on culture age: with IBMX, 2 d versus 7 d cultures, Fig. 2
macrophages = settings: ref Wiik, 1989; Vignery et al., 1991; cited from earlier work
[6] = system: neutral endopeptidase 24.11; settings: ref Davies et al., 1992; Turner, A. J., personal communication; cited from earlier work
[7] = cultured Schwann cells, ref Raff et al., 1978a,b, Ridley et al., 1989, Davis and Stroobant, 1990, Weinmaster and Lemke, Chen et al., 1991, Stewart et al., Goodearl et al., 1993, Marchionni et al.
[8] = with 10 ng/ml PDGF-BB, pulsatile, Fig. 6 b

CCCC(=O)Nc1ncnc2c1ncn2[C@@H]1O[C@@H]2COP(=O)(O)O[C@H]2[C@H]1OC(=O)CCC [dibutyryl cAMP]
potentiation of response to growth factors (Schwann cells; [7]): greatly potentiated

C=C[C@@]1(C)CC(=O)[C@]2(O)[C@@]3(C)[C@@H](O)CCC(C)(C)[C@@H]3[C@H](O)[C@H](OC(C)=O)[C@@]2(C)O1 [forskolin]
doubling time ([1]; 1 µM forskolin with PDGF, continuous): ~ 2 d
Schwann cells incorporating BrdU in 24 h ([1]; 1 µM forskolin with PDGF, continuous, range in at least 10 different experiments): 40-60%
increase in BrdU incorporation, together with PDGF ([2]; fold, with 10 ng/ml PDGF-BB, pulsatile, every 3 h with 3-h wash-out, Fig. 6 b): eightfold
type of interaction with PDGF [2, 8]: synergistic
effect on PDGF-induced proliferation of fibroblasts [3]: inhibits the proliferation of sciatic nerve fibroblasts induced by PDGF
DNA synthesis (Schwann cells; 1 µM forskolin and PDGF, ref Stewart et al., 1991): no DNA synthesis
cells incorporating BrdU in 24 h (Schwann cells; PDGF and 10 µM forskolin, ref Stewart et al., 1991): 6%
potentiation of response to growth factors (Schwann cells; [7]): greatly potentiated
synthesis of PDGF beta receptor (PDGF receptor): increased synthesis
treatment time required to increase PDGF beta receptor mRNA (PDGF receptor): 12 to 24 h
effect of a single 3-h pulse on PDGF beta receptor mRNA (PDGF receptor; single 3-h pulse): ineffective
erbB2 receptor expression (erbB2 receptor): upregulated

CC(C)NCC(O)c1ccc(O)c(O)c1 (stereo not shown) [isoproterenol]
dependence of cAMP response on culture age ([4]; 3-d versus 8-d cells, 5 min, Fig. 1): more pronounced in 8-d cells
attenuation (desensitization) of cAMP response with time ([4]; Fig. 4 a): declined with time in similar fashion to the CGRP response
BrdU incorporation compared with forskolin ([2]; Fig. 6 b): comparable to the effect of forskolin
doubling time ([2]; pulsatile): ~ 4 d
cells synthesizing DNA in 24 h ([2]; pulsatile): ~25%
type of interaction with PDGF [2, 8]: simply additive
plateau of cAMP effect (cultured Schwann cells): did not plateau even at 10-4 M

FGF-1: growth factor, literature mitogen
promotion of Schwann cell proliferation (Schwann cells): promote the proliferation

FGF-2: growth factor, literature mitogen
promotion of Schwann cell proliferation (Schwann cells): promote the proliferation

calcitonin gene-related peptide [CGRP]
desensitization at lower dose ([4]; 10^-8 M CGRP): desensitization was reduced with this dose
magnitude of cAMP response ([4]; 5 min with 5 x 10^-8 M CGRP without IBMX, Discussion): 8-10 fold
attenuation (desensitization) of cAMP response with time ([4]; Fig. 4 a): declined rapidly, even in the presence of IBMX
cAMP over basal after 1 h ([4]; maximal dose of CGRP, declined even in the presence of IBMX, Fig. 4 a): twofold
increase in cAMP over basal after 5 min ([4]; maximal dose of CGRP, without IBMX, high density, 4 d in defined medium, Fig. 4 a): eightfold
activity of CGRP after 3 h incubation with Schwann cells ([4]; medium from Schwann cells incubated with CGRP for 3 h transferred to fresh cultures, 5 min, Fig. 5): a comparable stimulation of cAMP
attenuation of cAMP response ([5]; compared with Schwann cells, 5 x 10-s M CGRP (so in the source), 200 µM IBMX, Fig. 4 b): even more rapid
BrdU incorporation compared with forskolin ([2]; Fig. 6 b): comparable to the effect of forskolin
doubling time ([2]; pulsatile): ~ 4 d
cells synthesizing DNA in 24 h ([2]; pulsatile): ~25%
type of interaction with PDGF [2, 8]: synergistic
effect together with PDGF compared with forskolin and PDGF ([2]; with PDGF, pulsatile, Fig. 6 b): as effective as forskolin and PDGF
cAMP in macrophages (macrophages): increase cAMP levels in macrophages
substrate of neutral endopeptidase 24.11 [6]: very good substrate

cholera toxin
potentiation of response to growth factors (Schwann cells): greatly potentiated

glial growth factor [GGF]
promotion of Schwann cell proliferation (Schwann cells): promote the proliferation
mitogenicity without forskolin / enhancement of GGF effect (Schwann cells; ref Davis and Stroobant, 1990, Goodearl et al., 1993, Marchionni et al.): is a mitogen without forskolin

peptide histidine-isoleucine [PHI]
dependence of cAMP effect on culture age [5]: only seen in the older cultures

vasoactive intestinal peptide (HSDAVFTDNYTRLRKQMAVKKYLNSILN; ends and bridges not checked; UniProt P01282 125-152, looked up) [VIP]
dependence of cAMP effect on culture age [5]: only seen in the older cultures
cAMP in macrophages (macrophages): increase cAMP levels in macrophages
plateau of cAMP effect (cultured Schwann cells): did not plateau even at 10-4 M

B1: PDGF: Recombinant human PDGF-BB purchased from R&D Systems (protein, UniProt P01127 82-190, looked up)
Platelet-derived growth …: SLGSLTIAEPAMIAECKTRTEVFEISRRLIDRTNANFLVWPPCVEVQRCSGCCNNRNVQCRPTQVQLRPVQVRKIEIVRKKPIFKKATVTLEDHLACKCETVAAARPVT
doubling time ([1]; PDGF alone): 10 days
Schwann cells incorporating BrdU in 24 h ([1]; defined medium with PDGF alone (before forskolin), Discussion): 10%
promotion of Schwann cell proliferation (Schwann cells): promote the proliferation
